Patent US20220169654A1, “New Organic Compounds” (Servier Pharmaceuticals LLC, priority 2020, published 2022)

How the values were obtained:
MAT2A homodimer = target: T1, MAT2A homodimer (Homo sapiens, UniProt P31153); assay: MAT2A inhibition (biochemical, liberated phosphate, PiColorLock Gold); conditions: recombinant MAT2A homodimer; IC50 bin with Max Inh.; read-out: Enzyme Inhibition Bin
T1 construct: inferred from Ni sepharose purification with imidazole elution; made in house; host or cells: Sf9 insect cells, baculovirus (Bac to Bac, pFASTBAC1)
T1 sequence (P31153 whole entry): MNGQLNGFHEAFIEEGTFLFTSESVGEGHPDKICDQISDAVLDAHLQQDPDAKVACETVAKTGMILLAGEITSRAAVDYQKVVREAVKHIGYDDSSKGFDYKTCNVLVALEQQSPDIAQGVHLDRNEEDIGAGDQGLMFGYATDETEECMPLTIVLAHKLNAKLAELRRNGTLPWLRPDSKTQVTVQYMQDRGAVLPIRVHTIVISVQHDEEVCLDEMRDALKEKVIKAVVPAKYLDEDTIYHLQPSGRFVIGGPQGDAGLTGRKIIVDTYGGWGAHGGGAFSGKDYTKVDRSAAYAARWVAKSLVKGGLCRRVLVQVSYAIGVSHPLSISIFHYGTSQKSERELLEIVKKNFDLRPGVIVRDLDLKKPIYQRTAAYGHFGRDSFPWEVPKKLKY
How it was run: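 Baculovirus/Sf9-expressed, Ni-purified MAT2A (4 μg/mL) preincubated with compound 60 min at 25 °C in Tris pH 8.0/KCl/MgCl2 buffer. Reaction started with 500 μM ATP and 400 μM L-methionine (substrate-mix concentrations), run 60 min at 25 °C. Phosphate measured colorimetrically against a phosphate standard curve to give IC50.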

[1] = tested on: SAM in HCT116 human colon carcinoma cell line with MTAP gene deleted (MTAP −/−); assay: Cellular assay of target engagement (SAM), LC-MS/MS, 72 hrs; assay type: cell-based; conditions: HCT-116, IC50 bin with Max Inh., read-out: Cell 72 h SAM Inhibition (MTAP −/−)
How it was run: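 MTAP-deleted HCT116 cells plated 24 h, then given 10-point 3-fold dilutions for 72 hrs at 37° C. Intracellular SAM extracted in cold 80% methanol with 1M acetic acid and d3-SAM standard, quantified by LC-MS/MS (MRM m/z 399.2→250.1); IC50 derived.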

HCT116 MTAP−/− = assay: Inhibition of cellular proliferation, 4 days, Cell Titer Glo, HCT116 MTAP−/−; assay type: cell-based; conditions: Homo sapiens, HCT-116, 96 h, IC50 bin with Max Inh., read-out: 4 Day Relative Growth Inhibition (MTAP −/−)
How it was run: (§1)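 Isogenic HCT116 pair differing only in MTAP status, plated 24 h before treatment with 10-point 3-fold dilutions; 4 days at 37° C./5% CO2. Cell Titer Glo luminescence, blank-subtracted and normalised to 0.2% DMSO control, gives percentage proliferation vs log molar concentration for IC50.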

HCT116 MTAP+/+ = assay: Inhibition of cellular proliferation, 4 days, Cell Titer Glo, HCT116 MTAP+/+; assay type: cell-based; conditions: Homo sapiens, HCT-116, 96 h, IC50 bin with Max Inh., read-out: 4 Day Relative Growth Inhibition (MTAP +/+)
How it was run: as §1

IC50 (MAT2A homodimer) [nM] | IC50 [1] [nM] | IC50 (HCT116 MTAP−/−) [nM] | IC50 (HCT116 MTAP+/+) [nM] | Compound
< 100 | 100 to 1000 | 100 to 1000 | > 1000 | [2H]C([2H])([2H])Oc1ccc(-n2nc3c(C#N)cn(CC4CC4)c3c(-c3ccc(C(F)F)nc3)c2=O)cc1 [Example 137, 5-(cyclopropylmethyl)-4-(6-(difluoromethyl)pyridin-3-yl)-2-(4-(methoxy-d3)phenyl)-3-oxo-3,5-dihydro-2H-pyrrolo[3,2-c]pyridazine-7-carbonitrile]
< 100 | < 100 | < 100 | > 1000 | Cn1cc2cc(-n3nc4c(C#N)cn(CC5CC5)c4c(-c4ccc(C5CC5)cc4)c3=O)ccc2n1 [Example 138, 5-(cyclopropylmethyl)-4-(4-cyclopropylphenyl)-2-(2-methyl-2H-indazol-5-yl)-3-oxo-3,5-dihydro-2H-pyrrolo[3,2-c]pyridazine-7-carbonitrile]
< 100 | < 100 | < 100 | < 100 | Cn1cc2cc(-n3nc4c(C#N)cn(CC5CC5)c4c(-c4ccc(Cl)cc4)c3=O)ccc2n1 [Example 139, 4-(4-chlorophenyl)-5-(cyclopropylmethyl)-2-(2-methyl-2H-indazol-5-yl)-3-oxo-3,5-dihydro-2H-pyrrolo[3,2-c]pyridazine-7-carbonitrile]
< 100 | < 100 | < 100 | 100 to 1000 | Cc1nc2ccc(-n3nc4ccn(CC5CC5)c4c(-c4ccc(C(F)F)nc4)c3=O)cc2n1C [Example 140, 5-(cyclopropylmethyl)-4-(6-(difluoromethyl)pyridin-3-yl)-2-(1,2-dimethyl-1H-benzo[d]imidazol-6-yl)-2,5-dihydro-3H-pyrrolo[3,2-c]pyridazin-3-one]
< 100 | < 100 | < 100 | 100 to 1000 | Cc1ccc(-c2c(=O)n(-c3ccc4nc(C)n(C)c4c3)nc3ccn(CC4CC4)c23)cn1 [Example 141, 5-(cyclopropylmethyl)-2-(1,2-dimethyl-1H-benzo[d]imidazol-6-yl)-4-(6-methylpyridin-3-yl)-2,5-dihydro-3H-pyrrolo[3,2-c]pyridazin-3-one]
< 100 | < 100 | < 100 | > 1000 | CCc1ccc(-c2c(=O)n(-c3ccc4nc(C)n(C)c4c3)nc3ccn(CC4CC4)c23)cn1 [Example 142, 5-(cyclopropylmethyl)-2-(1,2-dimethyl-1H-benzo[d]imidazol-6-yl)-4-(6-ethylpyridin-3-yl)-2,5-dihydro-3H-pyrrolo[3,2-c]pyridazin-3-one]
< 100 | < 100 | < 100 | 100 to 1000 | Cn1cc2cc(-n3nc4c(C#N)cn(CC5CC5)c4c(-c4ccc(C(F)F)nc4)c3=O)ccc2n1 [Example 143, 5-(cyclopropylmethyl)-4-(6-(difluoromethyl)pyridin-3-yl)-2-(2-methyl-2H-indazol-5-yl)-3-oxo-3,5-dihydro-2H-pyrrolo[3,2-c]pyridazine-7-carbonitrile]
100 to 1000 | 100 to 1000 | > 1000 | > 1000 | CNC(=O)c1ccc(-c2c(=O)n(-c3ccc4nn(C)cc4c3)nc3ccn(CC4CC4)c23)cn1 [Example 144, 5-(5-(cyclopropylmethyl)-2-(2-methyl-2H-indazol-5-yl)-3-oxo-3,5-dihydro-2H-pyrrolo[3,2-c]pyridazin-4-yl)-N-methylpicolinamide]
< 100 | 100 to 1000 | 100 to 1000 | 100 to 1000 | CCCn1cc(C#N)c2nn(-c3ccc4nn(C)cc4c3)c(=O)c(-c3ccc(C)nc3)c21 [Example 145, 2-(2-methyl-2H-indazol-5-yl)-4-(6-methylpyridin-3-yl)-3-oxo-5-propyl-3,5-dihydro-2H-pyrrolo[3,2-c]pyridazine-7-carbonitrile]
< 100 | < 100 | < 100 | 100 to 1000 | Cc1nc2ccc(-n3nc4c(C#N)cn(CC5CC5)c4c(-c4ccc(C(F)F)nc4)c3=O)cc2n1C [Example 147, 5-(cyclopropylmethyl)-4-(6-(difluoromethyl)pyridin-3-yl)-2-(1,2-dimethyl-1H-benzo[d]imidazol-6-yl)-3-oxo-3,5-dihydro-2H-pyrrolo[3,2-c]pyridazine-7-carbonitrile]
< 100 | < 100 | < 100 | < 100 | Cc1nc2ccc(-n3nc4c(C#N)cn(CC5CC5)c4c(-c4ccc(C5CC5)nc4)c3=O)cc2n1C [Example 148, 5-(cyclopropylmethyl)-4-(6-cyclopropylpyridin-3-yl)-2-(1,2-dimethyl-1H-benzo[d]imidazol-6-yl)-3-oxo-3,5-dihydro-2H-pyrrolo[3,2-c]pyridazine-7-carbonitrile]
< 100 | 100 to 1000 | 100 to 1000 | > 1000 | Cn1cc2cc(-n3nc4c(C#N)cn(CC5CC5)c4c(-c4ccc(C#N)cc4)c3=O)ccc2n1 [Example 149, 4-(4-cyanophenyl)-5-(cyclopropylmethyl)-2-(2-methyl-2H-indazol-5-yl)-3-oxo-3,5-dihydro-2H-pyrrolo[3,2-c]pyridazine-7-carbonitrile]
< 100 | < 100 | < 100 | > 1000 | Cn1cc2cc(-n3nc4ccn(CC5CC5)c4c(-c4ccc(C5CC5)cc4)c3=O)ccc2n1 [Example 150, 5-(cyclopropylmethyl)-4-(4-cyclopropylphenyl)-2-(2-methyl-2H-indazol-5-yl)-2,5-dihydro-3H-pyrrolo[3,2-c]pyridazin-3-one]
< 100 | < 100 | < 100 | > 1000 | Cc1ccc(-c2c(=O)n(-c3ccc4nc(C)n(C)c4c3)nc3c(C#N)cn(CC4CC4)c23)cn1 [Example 151, 5-(cyclopropylmethyl)-2-(1,2-dimethyl-1H-benzo[d]imidazol-6-yl)-4-(6-methylpyridin-3-yl)-3-oxo-3,5-dihydro-2H-pyrrolo[3,2-c]pyridazine-7-carbonitrile]
< 100 | < 100 | < 100 | > 1000 | CCc1ccc(-c2c(=O)n(-c3ccc4nc(C)n(C)c4c3)nc3c(C#N)cn(CC4CC4)c23)cn1 [Example 152, 5-(cyclopropylmethyl)-2-(1,2-dimethyl-1H-benzo[d]imidazol-6-yl)-4-(6-ethylpyridin-3-yl)-3-oxo-3,5-dihydro-2H-pyrrolo[3,2-c]pyridazine-7-carbonitrile]
100 to 1000 | 100 to 1000 | > 1000 | > 1000 | Cn1cc2cc(-n3nc4ccn(CC5CC5)c4c(-c4ccc(C#N)nc4)c3=O)ccc2n1 [Example 153, 5-(5-(cyclopropylmethyl)-2-(2-methyl-2H-indazol-5-yl)-3-oxo-3,5-dihydro-2H-pyrrolo[3,2-c]pyridazin-4-yl)picolinonitrile]
< 100 | 100 to 1000 | 100 to 1000 | 100 to 1000 | Cn1cc2cc(-n3nc4ccn(CC5CC5)c4c(-c4ccc(C#N)cc4)c3=O)ccc2n1 [Example 154, 4-(5-(cyclopropylmethyl)-2-(2-methyl-2H-indazol-5-yl)-3-oxo-3,5-dihydro-2H-pyrrolo[3,2-c]pyridazin-4-yl)benzonitrile]
